Values quoted from earlier work, collected in patent US20070043054A1, “Enzyme cofactor combination for supplementing pyruvate dehydrogenase and alpha ketogluterate dehydrogenase complexes” (priority 2004, published 2007).

Key:
[1] = for stability in aqueous solution: neutral or alkaline solutions

| solubility in water | solubility in alkali (alkali) | solubility in organic solvents (organic solvents) | temperature up to which the dry form is stable ([1]; dry form) | SMILES | stability in aqueous solution [1] | stability to dry heat [1] |
| --- | --- | --- | --- | --- | --- | --- |
| soluble in water and ethanol |  |  |  | NC(=O)c1cccnc1 [Niacinamide] | stable for a short period when autoclaved |  |
| very slightly soluble in water | soluble in alkali | insoluble in most organic solvents |  | Cc1cc2nc3c(=O)[nH]c(=O)nc-3n(C[C@H](O)[C@H](O)[C@H](O)CO)c2cc1C [Riboflavin] | stable to oxidizing agents in strong mineral acids and in neutral aqueous solution | stable to dry heat |
|  |  |  | about 60 °C | O=C(O)c1cccnc1 [niacin] |  |  |

| SMILES | solubility in water | solubility in alkali (alkali) | solubility in organic solvents (organic solvents) | temperature up to which the dry form is stable ([1]; dry form) | stability in aqueous solution [1] | stability to dry heat [1] |
| --- | --- | --- | --- | --- | --- | --- |
| Cc1ncc(C[n+]2csc(CCO)c2C)c(N)n1 [Thiamine] | water-soluble |  |  |  | rapidly broken down in neutral or alkaline solutions | comparatively stable to dry heat |
